In brackets after ≈: the same amount, converted by molar mass.
Experiments:
[1] = tested on: Staphylococcus aureus (ATCC29213); assay: Microtitre plate assay, IC90 determination, STA 29213; type: cell-based; details: Staphylococcus aureus ATCC29213, 90% inhibitory concentration for bacterial growth, resazurin
Method: (§1) The bacteria used in this study were grown overnight in flasks containing 100 ml Mueller-Hinton Broth (Becton Dickinson—cat. no. 275730) in sterile de-ionized water, with shaking, at 37° C. Stocks (0.5 ml/tube) were stored at −70° C. until use. Bacteria titrations were performed in microtiter plates to detect the TCID50, in which the TCID50 represents the dilution that gives rise to bacterial growth in 50% of inoculated cultures.
(§2) In general, an inoculum level of approximately 100 TCID50 was used for susceptibility testing.
(§3) Flat-bottom, sterile 96-well plastic microtiter plates were filled with 180 μl of sterile deionized water, supplemented with 0.25% BSA. Subsequently, stock solutions (7.8× final test concentration) of compounds were added in 45 μl volumes in column 2 Serial five-fold dilutions (45 μl in […]) were made directly in the microtiter plates from column 2 to reach column 11. Untreated control samples with (column 1) and without (column 12) inoculum were included in each microtiter plate. Depending on the bacteria type, approximately 10 to 60 CFU per well of bacteria inoculum (100 TCID50), in a volume of 100 μl in 2.8× Mueller-Hinton broth medium, was added to the rows A to H, except column 12. The same volume of broth medium without inoculum was added to column 12 in row A to H. The cultures were incubated at 37° C. for 24 hours under a normal atmosphere (incubator with open air valve and continuous ventilation). At the end of incubation, one day after inoculation, the bacterial growth was quantitated fluorometrically. Therefore resazurin (0.6 mg/ml) was added in a volume of 20 μl to all wells 3 hours after inoculation, and the plates were re-incubated overnight. A change in colour from blue to pink indicated the growth of bacteria. The fluorescence was read in a computer-controlled fluorometer (Cytofluor Biosearch) at an excitation wavelength of 530 nm and an emission wavelength of 590 nm. The % growth inhibition achieved by the compounds was calculated according to standard methods.

[2] = tested on: Streptococcus pneumoniae (ATCC6305); assay: Microtitre plate assay, IC90 determination, SPN 6305; type: cell-based; details: Streptococcus pneumoniae ATCC6305, 90% inhibitory concentration for bacterial growth, resazurin
Method: as §1, §2, §3

M. Smegmatis ATCC607 = assay: In-vitro anti-bacterial activity against strain M. smegmatis ATCC607; type: cell-based; details: 90% inhibitory concentration for bacterial growth, 48 hours, Alamar Blue fluorescence
Method: Flat-bottom, sterile 96-well plastic microtiter plates were filled with 180 μl of sterile deionized water, supplemented with 0.25% BSA. Subsequently, stock solutions (7.8× final test concentration) of compounds were added in 45 μl volumes to a series of duplicate wells in column 2 so as to allow evaluation of their effects on bacterial growth. Serial five-fold dilutions (45 μl in 180 μl) were made directly in the microtiter plates from column 2 to 11 using a customised robot system (Zymark Corp., Hopkinton, Mass.). Pipette tips were changed after every 3 dilutions to minimize pipetting errors with high hydrophobic compounds. Untreated control samples with (column 1) and without (column 12) inoculum were included in each microtiter plate. Approximately 250 CFU per well of bacteria inoculum, in a volume of 100 μl in 2.8× Mueller-Hinton broth medium, was added to the rows A to H, except column 12. The same volume of broth medium without inoculum was added to column 12 in row A to H. The cultures were incubated at 37° C. for 48 hours in a humidified 5% CO2 atmosphere (incubator with open air valve and continuous ventilation). At the end of incubation, two days after inoculation, the bacterial growth was quantitated fluorometrically. Therefore Alamar Blue (10×) was added to all wells in a volume of 20 μl and plates were incubated for another 2 hours at […]
The fluorescence was read in a computer-controlled fluorometer (Cytofluor, Biosearch) at an excitation wavelength of 530 nm and an emission wavelength of 590 nm (gain 30).

[3] = tested on: Enterococcus faecalis (ATCC29212); assay: Microtitre plate assay, IC90 determination, EFA 29212; type: cell-based; details: Enterococcus faecalis ATCC29212; 90% inhibitory concentration for bacterial growth; resazurin
Method: as §1, §2, §3

[4] = tested on: Streptococcus pyogens (ATCC8668); assay: Microtitre plate assay, IC90 determination, SPY 8668; type: cell-based; details: Streptococcus pyogens ATCC8668; 90% inhibitory concentration for bacterial growth; resazurin
Method: as §1, §2, §3

[5] = tested on: methicilline resistant Staphylococcus aureus (MRSA) (a clinical isolate from the University of Antwerp); assay: Microtitre plate assay, IC90 determination, STA RMETH; type: cell-based; details: 90% inhibitory concentration for bacterial growth, resazurin
Method: as §1, §2, §3

[6] = tested on: Staphylococcus aureus (ATCC25923); assay: Microtitre plate assay, IC90 determination, STA 25923; type: cell-based; details: Staphylococcus aureus ATCC25923; 90% inhibitory concentration for bacterial growth; resazurin
Method: as §1, §2, §3

[7] = tested on: Pseudomonas aeruginosa (ATCC27853); assay: Microtitre plate assay, IC90 determination, PAE 27853; type: cell-based; details: Pseudomonas aeruginosa ATCC27853; 90% inhibitory concentration for bacterial growth; resazurin
Method: as §1, §2, §3

Structure (SMILES)	IC90 ([1]; read-out: IC90 (μg/ml) STA 29213) [µg/mL]	IC90 ([2]; read-out: IC90 (μg/ml) SPN 6305) [µg/mL]	IC90 (M. Smegmatis ATCC607; Mycolicibacterium smegmatis, ATCC607, read-out: M. smegmatis IC90) [µg/mL]	melting point [°C]	IC90 (μg/ml) EFA 29212 [3] [µg/mL]	IC90 (μg/ml) SPY 8668 [4] [µg/mL]	IC90 (μg/ml) STA 29213 [1] [µg/mL]	IC90 (μg/ml) STA RMETH [5] [µg/mL]	IC90 (μg/ml) STA 25923 [6] [µg/mL]	IC90 (μg/ml) SPN 6305 [2] [µg/mL]	IC90 (μg/ml) PAE 27853 [7] [µg/mL]	M. smegmatis IC90 (M. Smegmatis ATCC607) [µg/mL]
COc1nc2ccc(Br)cc2cc1C(/C(=C/CN(C)C)CCc1ccccc1)c1ccccc1 (stereo not drawn) [Compound 8]	8.17 (≈ 15.8 µM)	2.05 (≈ 3.98 µM)	1.63 (≈ 3.16 µM)	128	–	–	–	–	–	–	–	–
COc1nc2ccc(Br)cc2cc1C(=C(CCN(C)C)c1ccccc1)c1ccccc1 [Compound 36]	–	–	–	–	12.24 (≈ 25.1 µM)	9.73 (≈ 20 µM)	9.73 (≈ 20 µM)	12.24 (≈ 25.1 µM)	10.91 (≈ 22.4 µM)	5.47 (≈ 11.2 µM)	12.24 (≈ 25.1 µM)	1.94

Reference: US20100069366A1, “ANTIBACTERIAL QUINOLINE DERIVATIVES” (JANSSEN-CILAG, priority 2006, published 2010)
